Here are results for 68 molecules from patent publication US20050192314A1, “Urea derivatives as C-kit modulators” (Ambit Biosciences Corporation, priority 2003, published 2005).

Molecules are shown by their SMILES.

Assay [1] has as its target T1, KIT(JMminus) (Homo sapiens, UniProt P10721).
T1 construct: KIT(JMminus); made in house
Nature of the assay: Binding constant (Kd) measurement, phage-displayed kinase competition binding assay: KIT(JMminus). The text has this:
(§1) The term “ND” represents non-determined values.

Assay [2] addresses T2, KIT(DKIN) (Homo sapiens, UniProt P10721).
T2 construct: KIT(DKIN); made in house
Nature of the assay: Binding constant (Kd) measurement, phage-displayed kinase competition binding assay: KIT(DKIN).
Description: as §1

T2 sequence (P10721 589-937 limits assumed): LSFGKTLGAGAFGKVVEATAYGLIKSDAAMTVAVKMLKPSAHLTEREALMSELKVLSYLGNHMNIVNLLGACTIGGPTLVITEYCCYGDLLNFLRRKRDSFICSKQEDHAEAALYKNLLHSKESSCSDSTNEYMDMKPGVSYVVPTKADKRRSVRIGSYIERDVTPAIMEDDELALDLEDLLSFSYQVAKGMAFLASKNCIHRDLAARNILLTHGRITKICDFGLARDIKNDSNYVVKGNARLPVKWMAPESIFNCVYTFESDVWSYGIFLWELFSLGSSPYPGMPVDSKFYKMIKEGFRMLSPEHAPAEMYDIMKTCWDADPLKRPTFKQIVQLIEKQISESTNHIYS
T1 sequence (P10721 589-937 limits assumed): as above

Take `COc1cc(NC(=O)c2cn3nc(Cl)ccc3n2)ccc1NC(=O)Nc1cc(C(C)(C)C)on1` [Compound N171]: the Kd (usually a measure of binding affinity in units of concentration) in assay [1] is less than 100 nM.
`COc1cc(OC)nc(Oc2cccnc2C(=O)Nc2ccc(NC(=O)Nc3cc(C(C)(C)C)on3)cc2)n1` [Compound N56]: the Kd in assay [1] lay within 100 to 1000 nM.
The molecule `CC(C)(C)c1cc(NC(=O)Nc2ccc(NC(=O)c3csc(Cc4cccc(C(F)(F)F)c4)n3)cc2)no1` [Compound N180] came in with a Kd in assay [1] of less than 100 nM.
In assay [1], `Cc1cc(NC(=O)c2cn3nc(Cl)ccc3n2)ccc1NC(=O)Nc1cc(C(C)(C)C)on1` [Compound N169] gave a Kd of less than 100 nM.
The molecule `COc1cc(OC)nc(Nc2cccc(C(=O)Nc3ccc(NC(=O)Nc4cc(C(C)(C)C)on4)cc3)c2)n1` [Compound N49] showed a Kd in assay [1] of less than 100 nM.
The molecule `COc1cc(OC)nc(C2CCCCC2C(=O)Nc2ccc(NC(=O)Nc3cc(C(C)(C)C)on3)cc2)n1` (centres unmarked) [Compound N129] returned an equilibrium dissociation constant (Kd) in assay [1] of less than 100 nM.
In the case of `COc1ccnc(Nc2ccc(C(=O)Nc3ccc(NC(=O)Nc4cc(C(C)(C)C)on4)cc3)cc2)n1` [Compound N51], the dissociation constant (Kd) in assay [1] was less than 100 nM.
The same measure, in the same setting: under `CC(C)(C)c1cc(NC(=O)Nc2ccc(NC(=O)c3cc4cccc5c4n(c3=O)CC5)cc2)no1` [Compound N60] stands less than 100 nM; under `CC(C)(C)c1cc(NC(=O)Nc2ccc(NC(=O)c3ccccc3O)cc2)no1` [Compound N69], 1000 to 10000 nM.
In turn, `CC(C)(C)c1cc(NC(=O)Nc2ccc(NC(=O)c3ccc(Oc4ccnc(C(=O)O)c4)cc3)cc2)no1` [Compound N166] gave a dissociation constant (Kd) in assay [1] of less than 100 nM.
For the molecule `CC(C)(C)c1cc(NC(=O)Nc2ccc(NC(=O)c3cc(Br)cn(Cc4ccccc4)c3=O)cc2)no1` [Compound N67], the Kd in assay [1] is less than 100 nM.
`CC(C)(C)c1cc(NC(=O)Nc2ccc(NC(=O)c3cc(N4CCOCC4)nc(N4CCOCC4)c3)cc2)no1` [Compound N54]: the Kd in assay [1] was less than 100 nM.
In the case of `CC(C)(C)c1cc(NC(=O)Nc2ccc(NC(=O)c3cc4cccnc4nc3C(F)(F)F)cc2)no1` [Compound N61], the Kd in assay [1] lay within 100 to 1000 nM.
The same measure, in the same setting: in the case of `COc1cc(NC(=O)CCC(=O)N2CCNC(=O)CC2)ccc1NC(=O)Nc1cc(C(C)(C)C)on1` [Compound N172] it was 100 to 1000 nM; in that of `COc1cc(C(=O)Nc2ccc(NC(=O)Nc3cc(C(C)(C)C)on3)cc2)nc(OC)n1` [Compound N162], less than 100 nM.
On to `CC(C)(C)c1cc(NC(=O)Nc2ccc(NC(=O)c3cccc[n+]3[O-])cc2)no1` [Compound N81], for which, in assay [1], the Kd is less than 100 nM.
In the case of `CC(C)(C)c1cc(NC(=O)Nc2ccc(NC(=O)c3cc4cc(F)cc(S(C)(=O)=O)c4[nH]3)cc2)no1` [Compound N58], the Kd in assay [1] fell in the range of 100 to 1000 nM.
In assay [1], `CC(C)(C)c1cc(NC(=O)Nc2ccc([N+](=O)[O-])cc2)no1` [Compound A21] showed a dissociation constant Kd of less than 100 nM.
The molecule `Cc1nc(-c2ccc(Cl)cc2)sc1C(=O)Nc1ccc(NC(=O)Nc2cc(C(C)(C)C)on2)cc1` [Compound N184] showed a Kd in assay [1] of less than 100 nM.
In assay [1], `CC(C)(C)c1cc(NC(=O)Nc2ccc(Nc3cc(N)nc(N)n3)cc2)no1` [Compound O7] returned a Kd of less than 100 nM.
With `Cn1nc(C(F)(F)F)c2cc(C(=O)Nc3ccc(NC(=O)Nc4cc(C(C)(C)C)on4)cc3)sc21` [Compound N64], in assay [1], the Kd was 100 to 1000 nM.
The same measure, in the same setting: under `COc1cc(OC)nc(Sc2ccccc2C(=O)Nc2ccc(NC(=O)Nc3cc(C(C)(C)C)on3)cc2)n1` [Compound N47] stands less than 100 nM; under `Cc1cnc(C(=O)Nc2ccc(NC(=O)Nc3cc(C(C)(C)C)on3)cc2)c(C(=O)O)n1` [Compound N160], less than 100 nM.
On to `CC(C)(C)c1cc(NC(=O)Nc2ccc(NC(=O)c3nnsc3Sc3ccc(C(F)(F)F)cc3)cc2)no1` [Compound N179], for which, in assay [1], the dissociation constant (Kd) is less than 100 nM.
Consider `CC(C)(C)c1cc(C(=O)Nc2ccc(NC(=O)Nc3cc(C(C)(C)C)on3)cc2)n(-c2ccccc2)n1` [Compound N78], for which the Kd in assay [1] was less than 100 nM.
In turn, `Cc1cc(NC(=O)[C@](C)(O)CSc2ccc(F)cc2)ccc1NC(=O)Nc1cc(C(C)(C)C)on1` [Compound N170] returned an equilibrium dissociation constant (Kd) in assay [1] of less than 100 nM.
`COc1ccc(NC(=O)Nc2cc(C(C)(C)C)on2)cc1OC` [Compound A55] had a Kd in assay [1] of 1000 to 10000 nM.
The molecule `CC(=O)c1c[nH]c(C(=O)Cc2ccc(NC(=O)Nc3cc(C(C)(C)C)on3)cc2)c1` [Compound N43] gave a dissociation constant (Kd) in assay [1] of less than 100 nM.
Turning to `CN(C)c1ccc(C(=O)Nc2ccc(NC(=O)Nc3cc(C(C)(C)C)on3)cc2)cn1` [Compound N159], the Kd in assay [1] is less than 100 nM.
The molecule `CC(C)(C)c1cc(NC(=O)Nc2ccc(NC(=O)c3nccc4ccccc34)cc2)no1` [Compound N117] showed a Kd in assay [1] of less than 100 nM.
On the same count and under the same terms, under `CC(C)c1nnsc1C(=O)Nc1ccc(NC(=O)Nc2cc(C(C)(C)C)on2)cc1` [Compound N182] stands 100 to 1000 nM; under `Cc1nc(-c2ccccc2)sc1C(=O)Nc1ccc(NC(=O)Nc2cc(C(C)(C)C)on2)cc1` [Compound N181], less than 100 nM; under `COc1ccc(C(=O)c2c[nH]c(C(=O)Nc3ccc(NC(=O)Nc4cc(C(C)(C)C)on4)cc3)c2)cc1` [Compound N177], 100 to 1000 nM.
On the same count and under the same terms, under `CC(C)(C)c1cc(NC(=O)Nc2ccc(NC(=O)c3cccnc3C(=O)O)cc2)no1` [Compound N165] stands less than 100 nM; under `CC(C)(C)c1cc(NC(=O)Nc2ccc3c(c2)OCO3)no1` [Compound A56], 100 to 1000 nM.
Same read-out and setting: under `CC(C)(C)c1cc(NC(=O)Nc2ccc(NC(=O)Cc3sc(-c4ccc(Cl)cc4)nc3-c3ccccc3)cc2)no1` [Compound N66] stands less than 100 nM.
Molecule `CC(C)(C)c1cc(NC(=O)Nc2ccc(NC(=O)c3nnsc3Cc3ccc(Cl)cc3)cc2)no1` [Compound N71] came in with a Kd in assay [1] of 100 to 1000 nM.
For the molecule `Cc1ccc(-c2nc(C(=O)Nc3ccc(NC(=O)Nc4cc(C(C)(C)C)on4)cc3)cs2)cc1` [Compound N178], in assay [1], the Kd is less than 100 nM.
For the molecule `CC(C)(C)c1cc(NC(=O)Nc2ccc(NC(=O)CNCC(=O)Nc3ccccc3)cc2)no1` [Compound N72], the Kd in assay [1] was less than 100 nM.
The molecule `CC(C)(C)c1cc(NC(=O)Nc2ccc(NC(=O)c3cn4c(n3)sc3ccccc34)cc2)no1` [Compound N73] returned an equilibrium dissociation constant (Kd) in assay [1] of less than 100 nM.
The molecule `Cn1nc(C(F)(F)F)c(C(=O)Nc2ccc(NC(=O)Nc3cc(C(C)(C)C)on3)cc2)c1Cl` [Compound N68] showed a Kd in assay [1] of less than 100 nM.
On to `COc1cc(OC)nc(N(C)c2cccc(C(=O)Nc3ccc(NC(=O)Nc4ccon4)cc3)c2)n1` [Compound N53], for which, in assay [1], the dissociation constant (Kd) was less than 100 nM.
Consider `CC(C)(C)c1cc(NC(=O)Nc2ccc(NC(=O)c3nn(-c4cccc(C(F)(F)F)c4)c(=O)cc3O)cc2)no1` [Compound N185], for which the Kd in assay [1] was less than 100 nM.
On to `CC(C)(C)c1cc(NC(=O)Nc2ccc(Nc3nc(N)nc4[nH]cnc34)cc2)no1` [Compound O6], for which the Kd in assay [1] was less than 100 nM.
For the molecule `CC(=O)c1ccc(N2CCC(C(=O)Nc3ccc(NC(=O)Nc4cc(C(C)(C)C)on4)cc3)CC2)cc1` [Compound N65], in assay [1], the dissociation constant Kd is less than 100 nM.
For `CCOC(=O)c1cccc(C(=O)Nc2ccc(NC(=O)Nc3cc(C(C)(C)C)on3)cc2)n1` [Compound N164], in assay [1], the Kd was less than 100 nM.
As to `CC(C)(C)c1cc(NC(=O)Nc2ccc(NC(=O)c3nocc3C(C)(C)C)cc2)no1` [Compound N82], the Kd in assay [1] is less than 100 nM.
In assay [1], `CC(C)(C)c1cc(NC(=O)Nc2ccc(NC(=O)C3=Cc4cc(F)cc(S(C)(=O)=O)c4C3)cc2)no1` [Compound N62] displayed a Kd of less than 100 nM.
For the molecule `CC(C)(C)c1cc(NC(=O)Nc2ccc(NC(=O)Cc3noc4ccccc34)cc2)no1` [Compound N80], the Kd in assay [1] was less than 100 nM.
`CC(C)(C)c1cc(NC(=O)Nc2ccc(NC(=O)C(N)Cc3ccccc3F)cc2)no1` (centres unmarked) [Compound N42] had a Kd in assay [2] of 1000 to 10000 nM.
`CC(C)(C)c1cc(NC(=O)Nc2ccc(OCCN3CCSCC3)cc2)no1` [Compound G53] gave a dissociation constant Kd in assay [2] of 1000 to 10000 nM.
`CC(C)(C)c1cc(NC(=O)Nc2ccc(NC(=O)Cc3ccc(-c4ccccc4)cc3)cc2)no1` [Compound N38] gave a Kd in assay [2] of 100 to 1000 nM.
In assay [2], `CC(C)(C)c1cc(NC(=O)Nc2ccc(NC(=O)c3cc(Cl)nc(Cl)c3)cc2)no1` [Compound N132] gave a Kd of 1000 to 10000 nM.
The same measure, in the same setting: in the case of `CNC(=O)c1ccc(NC(=O)Nc2cc(C(C)(C)C)on2)cc1` [Compound N85] it was 100 to 1000 nM.
On to `CC(C)(C)c1cc(NC(=O)Nc2ccc(NC(=O)CC(N)c3ccccc3Cl)cc2)no1` (centres unmarked) [Compound N44], for which, in assay [2], the Kd lay in the range of 1000 to 10000 nM.
Turning to `Cc1ccc(-n2nc(C(C)(C)C)cc2NC(=O)Nc2ccc(Cl)cc2)cc1` [Compound H14], in assay [2], the Kd is 1000 to 10000 nM.
In assay [2], `COC(=O)c1ccc(C(=O)Nc2ccc(NC(=O)Nc3cc(C(C)(C)C)on3)cc2)nc1` [Compound N113] returned a Kd of less than 100 nM.
On to `CC1CN(CCOc2ccc(NC(=O)Nc3cc(C(C)(C)C)on3)cc2)CC(C)O1` (centres unmarked) [Compound G42], for which the Kd in assay [2] was 1000 to 10000 nM.
As to `CC(C)(C)c1cc(NC(=O)Nc2ccc(OCCc3ccc(F)cc3)cc2)no1` [Compound G24], the dissociation constant (Kd) in assay [2] lay within 100 to 1000 nM.
The molecule `CC(C)(C)c1cc(NC(=O)Nc2ccc(C(=O)Nc3ccc(F)cc3F)cc2)no1` [Compound N153] returned an equilibrium dissociation constant (Kd) in assay [2] of 100 to 1000 nM.
In turn, `CC(C)(C)c1cc(NC(=O)Nc2ccc(C(=O)Nc3ccc(OCC4CCC4)cc3)cc2)no1` [Compound N100] displayed a Kd in assay [2] of 100 to 1000 nM.
In assay [2], `CC(C)(C)c1cc(NC(=O)Nc2ccc(OCc3ccccc3C(F)(F)F)cc2)no1` [Compound G4] gave a Kd of 100 to 1000 nM.
In assay [2], `CC(C)(C)c1cc(NC(=O)Nc2ccc(NC(=O)c3cccc4nsnc34)cc2)no1` [Compound N21] showed a Kd of less than 100 nM.
`Cc1ccc(NC(=O)Nc2cc(C(F)(F)F)cc(Cl)n2)cc1` [Compound W1] gave an equilibrium dissociation constant (Kd) in assay [2] of 100 to 1000 nM.
Regarding `CC(C)(CO)c1cc(NC(=O)Nc2ccc(OCc3ccccc3)cc2)on1` [Compound G2], the Kd in assay [2] was 100 to 1000 nM.
The molecule `CN(Cc1cccc([N+](=O)[O-])c1)C(=O)Nc1cc(C(C)(C)C)on1` [Compound J3] registered a Kd in assay [2] of 1000 to 10000 nM.
With `Cc1ccc(S(=O)(=O)Nc2ccc(NC(=O)Nc3cc(C(C)(C)C)on3)cc2)cc1` [Compound V2], in assay [2], the Kd is 1000 to 10000 nM.
In assay [2], `CC(C)(C)c1cc(NC(=O)Nc2ccc(NC(=O)c3cc(Cl)cn(Cc4ccccc4)c3=O)cc2)no1` [Compound N112] gave a Kd of 1000 to 10000 nM.
